assay: in vitro; conditions: human, hela cells, % viability

| SMILES | viability at 28.5 h, 10 µM |
| --- | --- |
| O=C(c1ccno1)N1CCC(Cc2ccccc2)CC1 [CBK200185] | 112% |
| Cc1cccc(CNc2nccnc2-c2cccs2)c1 [CBK036808] | 104% |
| Cn1cccc1C(=O)Nc1cc2ccccc2c(N2CCNCC2)n1 [CBK036347T] | 95.5% |
| CCN(Cc1ccncc1)C(=O)NCCCN1CCN(C)CC1 [CBK155123] | 108% |
| Nc1cc2ccccc2nc1C1CCN(C(=O)C2CC=CCC2)CC1 (centres unmarked) [CBK285016] | 88.9% |
| COc1ccc(-c2cc3cccn(CC(=O)N(C)C)c-3n2)cc1 [CBK285382] | 105% |
| Nc1nonc1C(=O)NCCNc1ccc([N+](=O)[O-])cc1 [CBK262577] | 104% |
| CC(C)(C)c1cc(/C=N/Nc2nc3ccccc3[nH]2)cc(C(C)(C)C)c1O [CBK262247] | 90.2% |
| CCOc1cc(NC2CCN(C(=O)Cc3ccncc3)CC2)ncn1 [CBK304752] | 101% |
| COc1ccc(F)c(CNCC2CCN(C(=O)OC(C)(C)C)CC2)c1 [CBK056716] | 95.9% |
| C=CCC1(CC=C)CCN1C(=O)Cc1c(C)nc(SC)[nH]c1=O [CBK282661] | 86.9% |
| CC(O)(CC#N)c1ccccc1 (centres unmarked) [CBK028508] | 114% |
| O=C1Nc2ccc(Br)cc2C(=O)N2CCNC[C@H]12 [CBK289583] | 85.1% |
| Nc1ncc(Br)nc1N[C@@H](CO)c1ccccc1 [CBK074321] | 102% |
| Cc1cc(N2CCN(C(=O)CCc3ccsc3)CC2)nc(C(C)C)n1 [CBK305710] | 113% |
| COC(=O)CN1CCCC[C@H]2CN(C(=O)Cc3ccsc3)C[C@H]21 [CBK285509] | 111% |
| CCn1nc2c(c1C(=O)Nc1cccc(CCc3ccncc3)c1)CCCC2 [CBK285561] | 87.5% |
| CCN(CC)C(=O)c1ccccc1NS(=O)(=O)c1ccc(C)cc1 [CBK045416] | 88.7% |
| O=C(CSc1nc(-c2cccs2)cc(C(F)(F)F)n1)NN1CCOCC1 [CBK307375] | 98.1% |
| COC1C(O)C(CO)OC1n1cc(C)c(N)nc1=O (centres unmarked) [CBK201227] | 108% |
| COc1ccc(CCNC(=O)/C=C/C(=O)O)cc1OC [CBK265373] | 103% |
| Cc1ccccc1CN1CCC(NC(=O)Cn2cc(Br)ccc2=O)CC1 [CBK305716] | 93.1% |
| Cc1nc(CN2CCCN(S(=O)(=O)c3ccc(C(=O)c4ccccc4)cc3)CC2)c[nH]1 [CBK063029] | 113% |

| SMILES | viability at 28.5 h, 10 µM |
| --- | --- |
| O=C(NCCc1c[nH]cn1)N1CCN(Cc2ccccc2)CC1 [CBK155629] | 96.4% |
| COc1ccc(-c2noc(CSc3nnc(-c4cccs4)n3-c3ccccc3)n2)cc1 [CBK268390] | 107% |
| CC(C)c1cc(C(=O)N2CCOCC2)c(NC(=O)c2cc(-c3cccnc3)nc3ccc(Br)cc23)s1 [CBK267763] | 93.7% |
| NC(=O)C1CCN(C(=O)CN2CCN(Cc3ccccc3)CC2)CC1 [CBK265971C] | 82.8% |
| Cc1cnc(CNS(=O)(=O)c2c(C)noc2C)cn1 [CBK062328] | 104% |
| Cc1ccc2cc(CN(Cc3ccc(N(C)C)cc3)C(=O)NC3CCCCC3)c(=O)[nH]c2c1C [CBK132070] | 97.3% |
| COc1cccc(OC)c1-c1cn2ccnc2c(N[C@H](CO)C(C)C)n1 [CBK036586] | 99.5% |
| O=C(O)c1ccc(NC(=O)c2cccc(-n3cnnc3)c2)cc1 [CBK270134] | 104% |
| COc1ncccc1C(=O)N1CCc2ccccc2C1 [CBK200336] | 96.9% |
| Cc1csc(-c2ccc(C(=O)N3CCN(C)CC3)c(N3CCOCC3)n2)c1 [CBK106195] | 90.8% |
| CC(C)(C)C(=O)NC(c1nccs1)C1CCN(C(=O)C2CC2)CC1 (centres unmarked) [CBK284678] | 88.8% |
| N#Cc1cc(SCCC(=O)O)c(N2CCOCC2)cc1C#N [CBK269212] | 96.3% |
| CC1(C(=O)O)CC(C)(C(=O)O)CC(C)(C(=O)O)C1 (centres unmarked) [CBK266107] | 91.8% |
| CN1CCCN(c2nc(-c3cccc(C(F)(F)F)c3)cn3ccnc23)CC1 [CBK066519] | 92% |
| Cc1ccc(-c2cc(CC3(C(=O)N(C)C)CCCN(C)C3)on2)cc1 (centres unmarked) [CBK281695] | 89.3% |
| O=C(CN1C(=O)c2ccccc2C1=O)Nn1cnnc1 [CBK263789] | 99.6% |
| Oc1cc(C(F)(F)F)nc(NCc2cccc3ccccc23)n1 [CBK003716] | 92.7% |
| O=C(O)C[C@@H]1CCN(C(=O)Nc2ccccc2)C[C@@H]1CCN1CCCCC1 [CBK288782] | 110% |
| Cn1nccc1C(=O)NC(Cc1ccsc1)c1nccs1 (centres unmarked) [CBK285138] | 98.1% |
| O=C(O)c1ccc(NS(=O)(=O)c2cc(Br)c(Cl)s2)cc1 [CBK034049] | 95.8% |
| O=C(N[C@H]1C[C@@H]2C(=O)N[C@H]3CCN(C(=O)Cc4cccs4)[C@@H]3C(=O)N2C1)C1CCC1 [CBK289269] | 117% |
| CN(CC(O)CO)C(=O)c1coc(COc2cccc(F)c2)n1 (centres unmarked) [CBK306854] | 88.5% |
| CCCNS(=O)(=O)c1ccc(OCC(=O)N2CCN(C)CC2)c(C)c1 [CBK270169] | 102% |

| SMILES | viability at 28.5 h, 10 µM |
| --- | --- |
| CC1(C)CC(=O)C2=C(C1)Nc1[nH][nH]c(=O)c1C2c1ccccn1 (centres unmarked) [CBK288463] | 92% |
| Cn1ccc(C(=O)N2CCC[C@H](C(=O)c3cccs3)C2)n1 [CBK282412] | 98% |
| Cn1ncc2c1CCCC2NC(=O)NCc1ccc(C#N)cc1F (centres unmarked) [CBK305193] | 85.4% |
| O=C1CCCN1CP(=O)(O)CN1CCCCC1 [CBK262302] | 85.6% |
| CC(C)C(=O)NCCN1CCOCC1 [CBK034322] | 115% |
| Cc1ccc(NC(=O)Cn2cnc3c2c(=O)n(C)c(=O)n3C)nc1 [CBK133463] | 95.9% |
| NCCC(=O)N(CCc1cc(C(F)(F)F)cc(C(F)(F)F)c1)c1cccc2ccccc12 [CBK000695T] | 0% |
| CC(=O)Nc1ccc(S(=O)(=O)Nc2nnc(CC(C)(C)C)s2)cc1 [CBK049910] | 87.7% |
| Cc1cccc(-c2cc(C(=O)O)c(C)o2)c1 [CBK045855] | 87.7% |
| Cc1cc(=O)[nH]c(C)c1C(=O)N1CCC(N2CCCC(CO)C2)CC1 (centres unmarked) [CBK307158] | 103% |
| CCOC(=O)c1[nH]c2c([N+](=O)[O-])cccc2c1O [CBK115315] | 88.1% |
| O=C(Nc1ccc(Cc2ccncc2)cc1)c1cc([N+](=O)[O-])n[nH]1 [CBK269157] | 99.4% |
| O=S(=O)(Cc1ccc(Br)cc1)c1cc2c(N3CCNCC3)nccc2s1 [CBK045688C] | 87.4% |
| CCn1cc(NS(=O)(=O)c2ccc(N3CCCC3=O)cc2)cn1 [CBK305922] | 85.3% |
| CC(C)CNc1nnc(-c2ccccc2[N+](=O)[O-])s1 [CBK076755] | 82.1% |
| Cc1cc(/C=N/NC(=O)c2ccc(CN3CCOCC3)cc2)c(C)n1-c1ccccc1 [CBK263329] | 100% |
| CCOC(=O)c1cccnc1-c1ccc(S(C)(=O)=O)cc1 [CBK149242] | 105% |
| COCCn1c(CO)nnc1[C@H]1C[C@@H](NC(=O)c2ccc(C)cc2F)C1 [CBK307296] | 101% |
| CCOc1cccc2sc(Nc3nc4ccc(NC(C)=O)cc4s3)nc12 [CBK287474] | 90.8% |
| O=C(O)C(=C/C=C/Br)C(=O)O [CBK260906] | 92.6% |
| COc1cccc2sc(NC(=O)CN3CCOCC3)nc12 [CBK149281] | 98.8% |
| COc1ccccc1CN1CCCC(c2nc(C)n3ccccc23)C1 (centres unmarked) [CBK283026] | 87.6% |
| COc1cccc(CN2CCN(C(=O)c3cc(C)[nH]c3C)[C@@H](C)C2)c1 [CBK284255] | 99.1% |

| SMILES | viability at 28.5 h, 10 µM |
| --- | --- |
| Cc1cc(NS(=O)(=O)c2ccc(Nc3nc(-c4cccs4)cs3)cc2)no1 [CBK262504] | 101% |
| COc1ccc(CCNC2CCN(Cc3ccccc3)CC2c2ccccc2)cc1OC (centres unmarked) [CBK286166] | 92.8% |
| N#Cc1cccc(C(=O)N2CCC(NC(=O)c3ccc(F)cc3)CC2)c1 [CBK305717] | 111% |
| Cc1ccc(C(=O)NC(C)c2nnc(SCC(=O)c3ccc(Br)cc3)n2C)cc1 (centres unmarked) [CBK266183] | 93.8% |
| COc1ccc(C(=O)N2C[C@@H]3C[C@H](C2)c2ccc(NC(=O)C4CC4)c(=O)n2C3)cc1 [CBK289072] | 90% |
| CN(C)c1ccc(CC(=O)NC2Cc3ccccc3C2)cc1 [CBK200360] | 105% |
| Cc1ccc(S(=O)(=O)N(C)c2c(C)ccc(S(=O)(=O)N(C)CCO)c2C)cc1 [CBK264970] | 85.5% |
| COc1ccccc1CC(=O)N1CCC(Cc2ccc(-c3ccccc3)cc2)(C(N)=O)CC1 [CBK285777] | 95.4% |
| CCNc1nc2ccccn2c(=O)c1C=C1SC(=S)N(CCCC(=O)O)C1=O [CBK296757] | 87.9% |
| Cc1oc(-c2ccccc2)nc1C(=O)N1CCCN(C)CC1 [CBK073940C] | 105% |
| COCCN1CCn2c(nc3cc(NC(=O)c4ccco4)ccc32)C1 [CBK267990] | 88.2% |
| O=C(NC1CC1)C1CCN(Cn2nnc3ccccc3c2=S)CC1 [CBK306342] | 94.1% |
| COCCNC(=O)CC1Sc2ccccc2NC1=O (centres unmarked) [CBK268443] | 98.9% |
| COCCNC(=O)c1cc(-c2ccccc2)cnc1N(C)S(C)(=O)=O [CBK076484] | 85.8% |
| CC1=NN(c2ccc(S(N)(=O)=O)cc2)C(=O)/C1=C\c1ccc(-c2cccc(C(=O)O)c2)o1 [CBK263483] | 98% |
| CC(=O)Nc1cccc(NC(=O)c2ccc(CN3CCc4ccccc4C3)cc2)c1 [CBK269534] | 92.2% |
| O=C(c1ccc(-c2nccnc2NCCc2c[nH]c3ccccc23)cc1)N1CCOCC1 [CBK036891] | 95.6% |
| CN(C(=O)C1(NC(N)=O)CC1)c1nc2c(s1)CC(c1ccccc1)CC2 (centres unmarked) [CBK306022] | 93% |
| CC(C)(C)c1cn(C[C@H]2CC3CCN2C[C@@H]3C(=O)NC2CCCCC2)nn1 (some centres unmarked) [CBK289085] | 83.9% |
| Cc1cc(COc2nccnc2N2CCCC2)no1 [CBK115755] | 91.3% |

Source: article PMC12040169 (PLOS Biology, 2025)
